Legend:
[1] = test system: full length SMN2 minigene mRNA containing SMN2 exon 7; assay: SMN2 minigene mRNA splicing RT-qPCR assay in cultured cells; type: cell-based, human; conditions: Homo sapiens, HEK293-H; HEK293H cells stably transfected with SMN2-A minigene, 24 hours, 7-point concentration curve; concentration giving 1.5-fold full length SMN2 mRNA vs vehicle; read-out: EC1.5x for production of full length SMN2 mRNA
How it was run: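 HEK293H cells stably carrying SMN2-A minigene treated 24 h (37 °C) with compound, 7-point 3.16-fold dilution, duplicates. Multiplex RT-qPCR on lysate with exon 7/luciferase primers and exon 7–8 junction probe (minigene-specific). Full-length transcript normalised to GAPDH by modified ΔΔCt, expressed relative to vehicle-treated cells.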

[2] = test system: Smn protein; assay: Smn protein assay in cultured cells (SMN HTRF); type: cell-based, human; conditions: SMA patient fibroblast cells (GM03813), 48 hours; for EC1.5x for Smn protein expression: 7-point concentration curve, concentration producing 1.5 times Smn protein vs DMSO vehicle; for maximum fold (Fold) increase of Smn protein: 7-point concentration data, relative to vehicle control
How it was run: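 SMA patient fibroblasts, 5,000 per well in DMEM-10% FBS, exposed 48 h at 37° C. to a 7-point, 3.16-fold compound series in triplicate. RIPA lysates read by SMN HTRF (665/620 nm, overnight at room temperature); ΔF over blank expressed as fold of vehicle.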

Cc1cn2cc(-c3cc4ccc(N5CCN(C(C)(C)C)CC5)cc4c(=O)o3)nc2c(C)n1 [Cpd 83, 7-(4-tert-butylpiperazin-1-yl)-3-(6,8-dimethylimidazo[1,2-a]pyrazin-2-yl)-1H-isochromen-1-one]
melting point: 300 to 302 °C | EC (1.5-fold) [1]: 0.1 to 0.3 µM | EC1.5x for Smn protein expression [2]: *** (an EC1.5× between >0.3 nM and ≦1 nM is indicated by three stars (***)) | maximum fold (Fold) increase of Smn protein [2]: **** (a fold increase between >1.5 and ≦1.65 is indicated by four stars (****))

Cc1cn2cc(-c3cc4ccc(N5CCN(C6CC6)CC5)cc4c(=O)o3)nc2c(C)n1 [Cpd 84, 7-(4-cyclopropylpiperazin-1-yl)-3-(6,8-dimethylimidazo[1,2-a]pyrazin-2-yl)-1H-isochromen-1-one]
melting point: 260 °C (dec.) | EC (1.5-fold) [1]: 0.1 to 0.3 µM | EC1.5x for Smn protein expression [2]: *** (an EC1.5× between >0.3 nM and ≦1 nM is indicated by three stars (***)) | maximum fold (Fold) increase of Smn protein [2]: ***** (a fold increase >1.65 is indicated by five stars (*****))

COCCN1CCN(c2ccc3cc(-c4cn5cc(C)nc(C)c5n4)oc(=O)c3c2)CC1 [Cpd 85, 3-(6,8-dimethylimidazo[1,2-a]pyrazin-2-yl)-7-[4-(2-methoxyethyl)piperazin-1-yl]-1H-isochromen-1-one]
melting point: 192 to 194 °C | EC (1.5-fold) [1]: 0.1 to 0.3 µM | EC1.5x for Smn protein expression [2]: *** (an EC1.5× between >0.3 nM and ≦1 nM is indicated by three stars (***)) | maximum fold (Fold) increase of Smn protein [2]: ***** (a fold increase >1.65 is indicated by five stars (*****))

Cc1cn2cc(-c3cc4ccc(N5CCN(CC(C)C)CC5)cc4c(=O)o3)nc2c(C)n1 [Cpd 86, 3-(6,8-dimethylimidazo[1,2-a]pyrazin-2-yl)-7-[4-(2-methylpropyl)piperazin-1-yl]-1H-isochromen-1-one]
melting point: 243 to 245 °C | EC (1.5-fold) [1]: ≤ 0.1 µM | maximum fold (Fold) increase of Smn protein [2]: *** (a fold increase between >1.35 and ≦1.5 is indicated by three stars (***))

Cc1cn2cc(-c3cc4ccc(N5CCN(C6CCC6)CC5)cc4c(=O)o3)nc2c(C)n1 [Cpd 87, 7-(4-cyclobutylpiperazin-1-yl)-3-(6,8-dimethylimidazo[1,2-a]pyrazin-2-yl)-1H-isochromen-1-one]
melting point: 279 to 281 °C | EC (1.5-fold) [1]: ≤ 0.1 µM | EC1.5x for Smn protein expression [2]: **** (an EC1.5×≦0.3 nM is indicated by four stars (****)) | maximum fold (Fold) increase of Smn protein [2]: **** (a fold increase between >1.5 and ≦1.65 is indicated by four stars (****))

Cc1cn2cc(-c3cc4ccc(C5=CCNCC5)cc4c(=O)o3)nc2c(C)n1 [Cpd 88, 3-(6,8-dimethylimidazo[1,2-a]pyrazin-2-yl)-7-(1,2,3,6-tetrahydropyridin-4-yl)-1H-isochromen-1-one]
melting point: 266 °C (dec.) | EC (1.5-fold) [1]: ≤ 0.1 µM | EC1.5x for Smn protein expression [2]: **** (an EC1.5×≦0.3 nM is indicated by four stars (****)) | maximum fold (Fold) increase of Smn protein [2]: **** (a fold increase between >1.5 and ≦1.65 is indicated by four stars (****))

Cc1cn2cc(-c3cc4ccc(C5=CCN(C)CC5)cc4c(=O)o3)nc2c(C)n1 [Cpd 89, 3-(6,8-dimethylimidazo[1,2-a]pyrazin-2-yl)-7-(1-methyl-1,2,3,6-tetrahydropyridin-4-yl)-1H-isochromen-1-one]
melting point: 240 to 242 °C | EC (1.5-fold) [1]: ≤ 0.1 µM | EC1.5x for Smn protein expression [2]: **** (an EC1.5×≦0.3 nM is indicated by four stars (****)) | maximum fold (Fold) increase of Smn protein [2]: **** (a fold increase between >1.5 and ≦1.65 is indicated by four stars (****))

CCN1CC=C(c2ccc3cc(-c4cn5cc(C)nc(C)c5n4)oc(=O)c3c2)CC1 [Cpd 90, 3-(6,8-dimethylimidazo[1,2-a]pyrazin-2-yl)-7-(1-ethyl-1,2,3,6-tetrahydropyridin-4-yl)-1H-isochromen-1-one]
melting point: 227 to 229 °C | EC (1.5-fold) [1]: ≤ 0.1 µM | EC1.5x for Smn protein expression [2]: **** (an EC1.5×≦0.3 nM is indicated by four stars (****)) | maximum fold (Fold) increase of Smn protein [2]: ***** (a fold increase >1.65 is indicated by five stars (*****))

Cc1cn2cc(-c3cc4ccc(C5=CCN(C(C)C)CC5)cc4c(=O)o3)nc2c(C)n1 [Cpd 91, 3-(6,8-dimethylimidazo[1,2-a]pyrazin-2-yl)-7-[1-(propan-2-yl)-1,2,3,6-tetrahydropyridin-4-yl]-1H-isochromen-1-one]
melting point: 259 to 261 °C | EC (1.5-fold) [1]: ≤ 0.1 µM | EC1.5x for Smn protein expression [2]: *** (an EC1.5× between >0.3 nM and ≦1 nM is indicated by three stars (***)) | maximum fold (Fold) increase of Smn protein [2]: *** (a fold increase between >1.35 and ≦1.5 is indicated by three stars (***))

COCCN1CC=C(c2ccc3cc(-c4cn5cc(C)nc(C)c5n4)oc(=O)c3c2)CC1 [Cpd 92, 3-(6,8-dimethylimidazo[1,2-a]pyrazin-2-yl)-7-[1-(2-methoxyethyl)-1,2,3,6-tetrahydropyridin-4-yl]-1H-isochromen-1-one]
melting point: 174 to 176 °C | EC (1.5-fold) [1]: ≤ 0.1 µM | EC1.5x for Smn protein expression [2]: **** (an EC1.5×≦0.3 nM is indicated by four stars (****)) | maximum fold (Fold) increase of Smn protein [2]: ***** (a fold increase >1.65 is indicated by five stars (*****))

Cc1cn2cc(-c3cc4ccc(C5=CCN(C6CC6)CC5)cc4c(=O)o3)nc2c(C)n1 [Cpd 93, 7-(1-cyclopropyl-1,2,3,6-tetrahydropyridin-4-yl)-3-(6,8-dimethylimidazo[1,2-a]pyrazin-2-yl)-1H-isochromen-1-one]
melting point: 230 to 232 °C | EC (1.5-fold) [1]: ≤ 0.1 µM | EC1.5x for Smn protein expression [2]: **** (an EC1.5×≦0.3 nM is indicated by four stars (****)) | maximum fold (Fold) increase of Smn protein [2]: ***** (a fold increase >1.65 is indicated by five stars (*****))

Cc1cn2cc(-c3cc4ccc(C5=CCN(C6CCC6)CC5)cc4c(=O)o3)nc2c(C)n1 [Cpd 94, 7-(1-cyclobutyl-1,2,3,6-tetrahydropyridin-4-yl)-3-(6,8-dimethylimidazo[1,2-a]pyrazin-2-yl)-1H-isochromen-1-one]
melting point: 252 to 254 °C | EC (1.5-fold) [1]: ≤ 0.1 µM | EC1.5x for Smn protein expression [2]: *** (an EC1.5× between >0.3 nM and ≦1 nM is indicated by three stars (***)) | maximum fold (Fold) increase of Smn protein [2]: ***** (a fold increase >1.65 is indicated by five stars (*****))

CCCN1CC=C(c2ccc3cc(-c4cn5cc(C)nc(C)c5n4)oc(=O)c3c2)CC1 [Cpd 95, 3-(6,8-dimethylimidazo[1,2-a]pyrazin-2-yl)-7-(1-propyl-1,2,3,6-tetrahydropyridin-4-yl)-1H-isochromen-1-one]
melting point: 226 to 228 °C | EC (1.5-fold) [1]: ≤ 0.1 µM | EC1.5x for Smn protein expression [2]: **** (an EC1.5×≦0.3 nM is indicated by four stars (****)) | maximum fold (Fold) increase of Smn protein [2]: ***** (a fold increase >1.65 is indicated by five stars (*****))

Cc1cn2cc(-c3cc4ccc(C5CCNCC5)cc4c(=O)o3)nc2c(C)n1 [Cpd 96, 3-(6,8-dimethylimidazo[1,2-a]pyrazin-2-yl)-7-(piperidin-4-yl)-1H-isochromen-1-one]
melting point: 218 to 220 °C | EC (1.5-fold) [1]: ≤ 0.1 µM | EC1.5x for Smn protein expression [2]: **** (an EC1.5×≦0.3 nM is indicated by four stars (****)) | maximum fold (Fold) increase of Smn protein [2]: ***** (a fold increase >1.65 is indicated by five stars (*****))

Cc1cn2cc(-c3cc4ccc(N5CCN(C6COC6)CC5)cc4c(=O)o3)nc2c(C)n1 [Cpd 97, 3-(6,8-dimethylimidazo[1,2-a]pyrazin-2-yl)-7-[4-(oxetan-3-yl)piperazin-1-yl]-1H-isochromen-1-one]
melting point: 294 to 296 °C | EC (1.5-fold) [1]: 1 to 3 µM | maximum fold (Fold) increase of Smn protein [2]: *** (a fold increase between >1.35 and ≦1.5 is indicated by three stars (***))

Cc1cn2cc(-c3cc4ccc(C5=CCN(C6COC6)CC5)cc4c(=O)o3)nc2c(C)n1 [Cpd 98, 3-(6,8-dimethylimidazo[1,2-a]pyrazin-2-yl)-7-[1-(oxetan-3-yl)-1,2,3,6-tetrahydropyridin-4-yl]-1H-isochromen-1-one]
melting point: 253 to 255 °C | EC (1.5-fold) [1]: ≤ 0.1 µM | EC1.5x for Smn protein expression [2]: *** (an EC1.5× between >0.3 nM and ≦1 nM is indicated by three stars (***)) | maximum fold (Fold) increase of Smn protein [2]: ***** (a fold increase >1.65 is indicated by five stars (*****))

Cc1nc(Cl)cn2cc(-c3cc4ccc(N5CCNCC5)cc4c(=O)o3)nc12 [Cpd 99, 3-(6-chloro-8-methylimidazo[1,2-a]pyrazin-2-yl)-7-(piperazin-1-yl)-1H-isochromen-1-one]
melting point: 221 to 226 °C | EC (1.5-fold) [1]: ≤ 0.1 µM | EC1.5x for Smn protein expression [2]: *** (an EC1.5× between >0.3 nM and ≦1 nM is indicated by three stars (***)) | maximum fold (Fold) increase of Smn protein [2]: ***** (a fold increase >1.65 is indicated by five stars (*****))

Cc1nc(Cl)cn2cc(-c3cc4ccc(N5CCN(C)CC5)cc4c(=O)o3)nc12 [Cpd 100, 3-(6-chloro-8-methylimidazo[1,2-a]pyrazin-2-yl)-7-(4-methylpiperazin-1-yl)-1H-isochromen-1-one]
melting point: 291 to 296 °C | EC (1.5-fold) [1]: ≤ 0.1 µM | EC1.5x for Smn protein expression [2]: *** (an EC1.5× between >0.3 nM and ≦1 nM is indicated by three stars (***)) | maximum fold (Fold) increase of Smn protein [2]: ***** (a fold increase >1.65 is indicated by five stars (*****))

Source: US9399649B2, “Compounds for treating spinal muscular atrophy” (PTC Therapeutics Inc., priority 2012, dated 2016)
